Measured values as given in ChEMBL document CHEMBL4420081, “Novel benzylamino substituted quinazolines and derivatives as sos1 inhibitors” (2018).

Key:
Type in all cases: functional
Settings in all cases: PC-9, 336 h, read-out: GI
[1] = system: PC-9; experiment: Growth inhibition of human PC9 cells grown under 3D anchorage-independent soft-agar conditions at 3.33 nM incubated for 14 days by alamar blue dye based assay relative to control
[2] = system: PC-9; experiment: Growth inhibition of human PC9 cells grown under 3D anchorage-independent soft-agar conditions at 0.123 nM incubated for 14 days by alamar blue dye based assay relative to control
[3] = system: PC-9; experiment: Growth inhibition of human PC9 cells grown under 3D anchorage-independent soft-agar conditions at 1.11 nM incubated for 14 days by alamar blue dye based assay relative to control
[4] = system: PC-9; experiment: Growth inhibition of human PC9 cells grown under 3D anchorage-independent soft-agar conditions at 10 nM incubated for 14 days by alamar blue dye based assay relative to control
[5] = system: PC-9; experiment: Growth inhibition of human PC9 cells grown under 3D anchorage-independent soft-agar conditions at 0.37 nM incubated for 14 days by alamar blue dye based assay relative to control

For `C=CC(=O)Nc1cccc(Oc2nc(Nc3ccc(N4CCN(C)CC4)cc3)nc3ccsc23)c1` [OLMUTINIB], the inhibition of growth at 0.00333 µM [1] was 35%, the inhibition of growth at 0.000123 µM [2] was -3% and the inhibition of growth at 0.00111 µM [3] was 1%. For the same molecule, the inhibition of growth at 0.01 µM [4] was 69% and the inhibition of growth at 0.00037 µM [5] was -3%.
